Measurements as given in patent US10597388B2, “Pyridazinone herbicides” (FMC CORPORATION, priority 2014, dated 2020).

Key:
Type in all cases: in vivo
[1] = test system: blackgrass (Alopecurus myosuroides); assay: Test A greenhouse herbicide test, postemergence
Outline: (§1)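 Scores are visual injury ratings from 0 (no effect) to 100 (complete control) versus untreated plants, taken roughly 10 d after treatment in the greenhouse. Treatment was postemergence, on one- to two-leaf plants 2–10 cm high growing in a loam soil/sand mix.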

[2] = test system: galium (catchweed bedstraw, Galium aparine); assay: Test A greenhouse herbicide test, postemergence
Outline: as §1

[3] = test system: barnyardgrass (Echinochloa crus-galli); assay: Test B flooded paddy test; conditions: 250 g ai/ha, Flood; visual rating on scale of 0 to 100 where 0 is no effect and 100 is complete control; 13 to 15 d after treatment
Outline: (§2)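 Ratings use a 0-100 visual scale, where 100 is complete control, and compare treated plants with controls after 13 to 15 d of greenhouse growth. Compound went straight into paddy water kept 3 cm over the soil surface, applied to seedlings at the 2-leaf stage.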

[4] = test system: ducksalad (Heteranthera limosa); assay: Test B flooded paddy test; conditions: 250 g ai/ha, Flood; visual rating on scale of 0 to 100 where 0 is no effect and 100 is complete control; 13 to 15 d after treatment
Outline: as §2

rice (Oryza sativa) = assay: Test B flooded paddy test; conditions: 250 g ai/ha, Flood; visual rating on scale of 0 to 100 where 0 is no effect and 100 is complete control; 13 to 15 d after treatment
Outline: as §2

[5] = test system: sedge, umbrella (small-flower umbrella sedge, Cyperus difformis); assay: Test B flooded paddy test; conditions: 250 g ai/ha, Flood; visual rating on scale of 0 to 100 where 0 is no effect and 100 is complete control; 13 to 15 d after treatment
Outline: as §2

[6] = test system: chickweed (common chickweed, Stellaria media); assay: Test C greenhouse herbicide test, postemergence
Outline: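 Seedlings are raised in pots of peat moss–vermiculite medium with starter nutrients, then receive postemergence test chemical at the 1- to 4-leaf stage. They are kept in the greenhouse 13 to 15 d and scored visually versus controls, 0 meaning no effect and 100 complete control.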

[7] = 125 g ai/ha, 0 to 100 scale where 0 is no effect and 100 is complete control
[8] = 500 g ai/ha, visual rating after approx. 10 d, 0 to 100 scale (0 no effect, 100 complete control)
[9] = Postemergence, 125 g ai/ha, scale 0 to 100, 0 is no effect, 100 is complete control
[10] = Postemergence, 250 g ai/ha, scale 0 to 100, 0 no effect, 100 complete control, 13 to 15 d
[11] = postemergence, 62 g ai/ha, scale 0 to 100, 0 no effect, 100 complete control
[12] = Postemergence, 31 g ai/ha, scale 0 to 100 (0 no effect, 100 complete control)
[13] = Postemergence, 62 g ai/ha, 0 to 100 scale (0 no effect, 100 complete control)
[14] = postemergence, 125 g ai/ha, scale 0 to 100, 0 no effect, 100 complete control
[15] = 125 g ai/ha, 0 to 100 scale, 0 no effect, 100 complete control

Structure (SMILES)	Plant response rating, Blackgrass [1, 7]	Blackgrass plant response rating ([1]; 500 g ai/ha, 0 to 100 scale, 0 is no effect, 100 is complete control)	Plant response rating, Galium [2, 7]	Plant response rating, Galium [2, 8]	Plant response rating, Barnyardgrass [3]	Plant response rating, Ducksalad [4]	Plant response rating, Rice (rice (Oryza sativa))	Plant response rating, Sedge, Umbrella [5]	Chickweed plant response rating ([6]; Postemergence, 31 g ai/ha, 0 to 100 scale (0 no effect, 100 complete control))	Plant response rating, Chickweed [6, 9]	Plant response rating, Chickweed [6, 10]	Chickweed plant response rating [6, 11]	Plant response rating, Blackgrass [1, 8]	Plant response rating, Chickweed [6, 12]	Chickweed plant response rating [6, 13]	Chickweed plant response rating [6, 14]	Plant response rating, Chickweed ([6]; Postemergence, 16 g ai/ha, scale 0 to 100 (0 no effect, 100 complete control))	Plant response rating, Blackgrass [1, 15]	Plant response rating, Galium [2, 15]	Plant response rating, Chickweed ([6]; Postemergence, 250 g ai/ha, scale 0 to 100, 0 is no effect, 100 is complete control)
COc1nn(C)c(=O)c(-c2c(C)sc3ccc(Cl)cc23)c1O [Compound 100]	40	70	90	100	0	0	0	0	90	95	95	90								
CCC(=O)Oc1c(Cl)nn(C)c(=O)c1-c1c(C)sc2ccc(Cl)cc12 [Compound 111]	30		90	100	0	75	0	75		100	98	98	70	95						
Cc1sc2ccc(Cl)cc2c1-c1c(OS(C)(=O)=O)c(Cl)nn(C)c1=O [Compound 114]	20		90	100	0	50	0	70		98	98	95	60	90						
Cc1nn(C)c(=O)c(-c2cc(F)cc3ccccc23)c1OS(C)(=O)=O [Compound 115]	20		80	100	0	0	0	0		90	90	75	70	80						
Cc1nn(C)c(=O)c(-c2ccc(F)c3ccccc23)c1OC(=O)CC(F)(F)F [Compound 123]	30		80	90	20	30	15	70		90	98	90	50	90						
Cc1ccc2ccccc2c1-c1c(O)c(Cl)nn(C)c1=O [Compound 125]	70		90	90	0	80	0	75		95	95	95	80	95						
Cc1nn(C)c(=O)c(-c2cccc3ccc(C#N)cc23)c1O [Compound 127]	20		90	100	0	0	0	0			95		50	50	90	90				
COC(=O)Oc1cnn(C)c(=O)c1-c1c(C)ccc2ccccc12 [Compound 143]	40		90	100	0	0	0	0					60	45	70	80	30			
Cc1cc(C)c2ccccc2c1-c1c(OS(C)(=O)=O)c(C)nn(C)c1=O [Compound 154]				100	50	60	50	80			95		90	90	90	90		70	100	
COC(=O)Oc1c(C)nn(C)c(=O)c1-c1c([N+](=O)[O-])ccc2ccccc12 [Compound 162]				100	0	0	0	0			95		40	90	90	95		20	90	
CC(=O)Oc1c(C)nn(C)c(=O)c1-c1c([N+](=O)[O-])ccc2ccccc12 [Compound 164]				100	0	0	0	0					40	80	90	95		20	80	98
